Common to all, as to format: biochemical
Assay [1] addresses T1, KRAS G12D (Homo sapiens, UniProt P01116, G12D).
T1 construct: made in house; host or cells: E. coli, e.g. BL21 (DE3)
The assay is described as follows: HTRF KRAS-SOS1 interaction assay, KRAS G12D. The note with it: binned ≤2 μM / >2 μM, read-out: Inhibition of KRAS G12D (IC50). In outline:
(§1)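 Read-out: HTRF ratio 665/620 nm after ≥10 min incubation of compound with GST-KRAS/anti-GST-Eu and His-hSOS1/anti-6His-XL665. Duplicate dose series, 10 μM down to 0.01 μM. Buffer HEPES pH 7.4, NaCl, DTT, BSA, Igepal.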
Background: TR-FRET usually uses a lanthanide donor and a delayed reading to cut background.

The target of assay [2] is T2, KRAS G12V (Homo sapiens, UniProt P01116, G12V).
T2 construct: made in house; host or cells: E. coli, e.g. BL21 (DE3)
The assay is described as follows: HTRF KRAS-SOS1 interaction assay, KRAS G12V. The note with it: binned ≤2 μM / >2 μM, read-out: Inhibition of KRAS G12V (IC50). Put shortly:
as §1

Assay [3] deals with T3, KRAS WT (Homo sapiens, UniProt P01116).
T3 construct: made in house; host or cells: E. coli, e.g. BL21 (DE3)
The assay is described as follows: HTRF KRAS-SOS1 interaction assay, wildtype KRAS. The note with it: binned ≤2 μM / >2 μM, read-out: Inhibition of KRAS WT (IC50). In outline:
as §1

Assay [4] concerns the target T4, KRAS G12S (Homo sapiens, UniProt P01116, G12S).
T4 construct: made in house; host or cells: E. coli, e.g. BL21 (DE3)
Briefly: HTRF KRAS-SOS1 interaction assay, KRAS G12S. The note with it: binned ≤2 μM / >2 μM, read-out: Inhibition of KRAS G12S (IC50). In outline: as §1

For orientation: IC50 means the concentration needed to halve the response being measured.

T3 sequence (P01116 1-188 isoform P01116-2): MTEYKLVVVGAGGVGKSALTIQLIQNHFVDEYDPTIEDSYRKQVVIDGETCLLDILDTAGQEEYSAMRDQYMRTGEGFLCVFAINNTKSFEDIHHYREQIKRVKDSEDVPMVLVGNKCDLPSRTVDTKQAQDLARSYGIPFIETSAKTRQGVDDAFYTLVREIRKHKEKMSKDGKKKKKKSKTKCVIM
T2 sequence (P01116 1-188 isoform P01116-2 G12V): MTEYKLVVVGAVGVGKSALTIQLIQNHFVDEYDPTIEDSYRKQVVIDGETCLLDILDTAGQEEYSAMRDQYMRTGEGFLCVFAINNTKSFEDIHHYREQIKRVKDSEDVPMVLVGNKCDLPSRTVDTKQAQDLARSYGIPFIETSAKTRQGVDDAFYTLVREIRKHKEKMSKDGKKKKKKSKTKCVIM
T1 sequence (P01116 1-188 isoform P01116-2 G12D): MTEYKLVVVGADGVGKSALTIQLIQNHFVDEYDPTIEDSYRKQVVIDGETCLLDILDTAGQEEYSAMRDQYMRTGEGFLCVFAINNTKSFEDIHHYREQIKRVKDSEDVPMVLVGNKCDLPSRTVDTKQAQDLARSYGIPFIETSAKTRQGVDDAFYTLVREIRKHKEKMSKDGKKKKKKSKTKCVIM
T4 sequence (P01116 1-188 isoform P01116-2 G12S): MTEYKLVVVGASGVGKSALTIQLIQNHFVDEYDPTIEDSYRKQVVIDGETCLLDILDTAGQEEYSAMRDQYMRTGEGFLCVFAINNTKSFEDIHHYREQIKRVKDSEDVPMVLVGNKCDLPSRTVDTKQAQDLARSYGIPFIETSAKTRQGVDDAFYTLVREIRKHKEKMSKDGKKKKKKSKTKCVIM

As to `N#Cc1c(N)sc2c(F)ccc(-c3c(Cl)c4c5c(nc(OC[C@@]67CCCN6C[C@H](F)C7)nc5c3F)N(C(/C=C\F)c3cccnc3N)CCO4)c12` (single isomer, unassigned) [Compound 755], the IC50 in assay [1], in assay [2], in assay [3] and in assay [4] was not above 2 µM throughout.

Regarding `C[C@H](c1cccnc1N)N1CCOc2c(Cl)c(-c3ccc(F)c4sc(N)c(C#N)c34)c(F)c3nc(OC[C@@H]4CCCN4C)nc1c23` (single isomer, unassigned) [Compound 641], the IC50 in assay [1], in assay [2], in assay [3] and in assay [4] was not above 2 µM throughout.

With `N#Cc1c(N)sc2c(F)ccc(-c3c(C(F)(F)F)c4c5c(nc(OC[C@@]67CCCN6C[C@H](F)C7)nc5c3F)N([C@H](CC3CCC3)c3cccnc3N)CCO4)c12` (single isomer, unassigned) [Compound 893], the concentration for half-maximal inhibition (IC50) in assay [1], in assay [2], in assay [3] and in assay [4] was not above 2 µM in each case.

In the case of `CC[S+]([O-])[C@H]1CN2CCC[C@@]2(COc2nc3c4c(c(Cl)c(-c5ccc(F)c6sc(N)c(C#N)c56)c(F)c4n2)OCCN3[C@H](C)c2cccnc2N)C1` (mixture of isomers) [Compound 906, 2-amino-4-(4-((R)-1-(2-aminopyridin-3-yl)ethyl)-8-chloro-2-(((2R,7aS)-2-(ethylsulfinyl)tetrahydro-1H-pyrrolizin-7a(5H)-yl)methoxy)-10-fluoro-5,6-dihydro-4H-[1,4]oxazepino[5,6,7-de]quinazolin-9-yl)-7-fluorobenzo[b]thiophene-3-carbonitrile], the IC50 in assay [1], in assay [2], in assay [3] and in assay [4] was not above 2 µM in each case.

For `N#Cc1c(N)sc2c(F)ccc(-c3c(C(F)(F)F)c4c5c(nc(OCC6(CN7CCC8(CC7)CC8(F)F)CC6)nc5c3F)N([C@H](CCC3CCOCC3)c3cccnc3N)CCO4)c12` [Compound 907, 2-amino-4-(4-((R)-1-(2-aminopyridin-3-yl)-3-(tetrahydro-2H-pyran-4-yl)propyl)-2-((1-((1,1-difluoro-6-azaspiro[2.5]octan-6-yl)methyl)cyclopropyl)methoxy)-10-fluoro-8-(trifluoromethyl)-5,6-dihydro-4H-[1,4]oxazepino[5,6,7-de]quinazolin-9-yl)-7-fluorobenzo[b]thiophene-3-carbonitrile], the IC50 in assay [1], in assay [2], in assay [3] and in assay [4] was not above 2 µM in each case.

Regarding `C#C[C@H](c1cccnc1N)N1CCOc2c(Cl)c(-c3ccc(F)c4sc(N)c(C#N)c34)c(F)c3nc(OC[C@@]45CCCN4C[C@H](F)C5)nc1c23` [Compound 904, 2-amino-4-(4-((R)-1-(2-aminopyridin-3-yl)prop-2-yn-1-yl)-8-chloro-10-fluoro-2-(((2R,7aS)-2-fluorotetrahydro-1H-pyrrolizin-7a(5H)-yl)methoxy)-5,6-dihydro-4H-[1,4]oxazepino[5,6,7-de]quinazolin-9-yl)-7-fluorobenzo[b]thiophene-3-carbonitrile], the IC50 in assay [1], in assay [2], in assay [3] and in assay [4] was not above 2 µM each time.

On to `C=CC(F)(F)[C@H](c1cccnc1N)N1CCOc2c(Cl)c(-c3ccc(F)c4sc(N)c(C#N)c34)c(F)c3nc(OC[C@@]45CCCN4C[C@H](F)C5)nc1c23` [Compound 639, 2-amino-4-(4-((S)-1-(2-aminopyridin-3-yl)-2,2-difluorobut-3-en-1-yl)-8-chloro-10-fluoro-2-(((2R,7aS)-2-fluorotetrahydro-1H-pyrrolizin-7a(5H)-yl)methoxy)-5,6-dihydro-4H-[1,4]oxazepino[5,6,7-de]quinazolin-9-yl)-7-fluorobenzo[b]thiophene-3-carbonitrile], for which the IC50 in assay [1], in assay [2], in assay [3] and in assay [4] was not above 2 µM in each case.

In the case of `CC(Oc1nc2c3c(c(Cl)c(-c4ccc(F)c5sc(N)c(C#N)c45)c(F)c3n1)OCCN2[C@H](C)c1cccnc1N)[C@@H]1CC(F)(F)CN1C` (single isomer, unassigned) [Compound 659], the IC50 in assay [1], in assay [2], in assay [3] and in assay [4] was more than 2 µM throughout.

With `C#Cc1c(F)ccc2cc(O)cc(-c3nc4c5c(nc(OC[C@@]67CCCN6C[C@H](F)C7)nc5c3F)N(C(C)c3cccnc3N)CCO4)c12` (mixture of isomers) [Compound 742, 4-(10-(1-(2-aminopyridin-3-yl)ethyl)-4-fluoro-2-(((2R,7aS)-2-fluorotetrahydro-1H-pyrrolizin-7a (5H)-yl)methoxy)-9,10-dihydro-8H-7-oxa-1,3,6,10-tetraazacyclohepta[de]naphthalen-5-yl)-5-ethynyl-6-fluoronaphthalen-2-ol], the IC50 in assay [1], in assay [2], in assay [3] and in assay [4] was not above 2 µM in each case.

In the case of `C[C@H](c1cccnc1C(F)F)N1CCOc2c(C(F)(F)F)c(-c3ccc(F)c4sc(N)c(C#N)c34)c(F)c3nc(OC[C@@]45CCCN4C[C@H](F)C5)nc1c23` [Compound 747, 2-amino-4-(4-((R)-1-(2-(difluoromethyl)pyridin-3-yl)ethyl)-10-fluoro-2-(((2R,7aS)-2-fluorotetrahydro-1H-pyrrolizin-7a(5H)-yl)methoxy)-8-(trifluoromethyl)-5,6-dihydro-4H-[1,4]oxazepino[5,6,7-de]quinazolin-9-yl)-7-fluorobenzo[b]thiophene-3-carbonitrile], the IC50 in assay [1], in assay [2], in assay [3] and in assay [4] was not above 2 µM throughout.

As to `C[C@H](c1cc(Cl)cnc1N)N1CCOc2c(C(F)(F)F)c(-c3ccc(F)c4sc(N)c(C#N)c34)c(F)c3nc(OC[C@@]45CCCN4CC(=C(F)F)C5)nc1c23` [Compound 793, 2-amino-4-(4-((R)-1-(2-amino-5-chloropyridin-3-yl)ethyl)-2-(((S)-2-(difluoromethylene)tetrahydro-1H-pyrrolizin-7a(5H)-yl)methoxy)-10-fluoro-8-(trifluoromethyl)-5,6-dihydro-4H-[1,4]oxazepino[5,6,7-de]quinazolin-9-yl)-7-fluorobenzo[b]thiophene-3-carbonitrile], the IC50 in assay [1], in assay [2], in assay [3] and in assay [4] was not above 2 µM in each case.

On to `C[C@H](c1cccnc1N)N1c2nc(OC[C@@]34CCCN3C[C@H](F)C4)nc3c(F)c(-c4ccc(F)c5sc(N)c(C#N)c45)c(Cl)c(c23)OC[C@@H]1C` [Compound 800, 2-amino-4-((5S)-4-((R)-1-(2-aminopyridin-3-yl)ethyl)-8-chloro-10-fluoro-2-(((2R,7aS)-2-fluorotetrahydro-1H-pyrrolizin-7a(5H)-yl)methoxy)-5-methyl-5,6-dihydro-4H-[1,4]oxazepino[5,6,7-de]quinazolin-9-yl)-7-fluorobenzo[b]thiophene-3-carbonitrile], for which the IC50 in assay [1], in assay [2], in assay [3] and in assay [4] was not above 2 µM in each case.

With `N#Cc1c(N)sc2c(F)ccc(-c3c(C(F)(F)F)c4c5c(nc(OC[C@@]67CCCN6C[C@H](F)C7)nc5c3F)N([C@H](C/C=C/C(F)(F)F)c3cccnc3N)CCO4)c12` (single isomer, unassigned) [Compound 739], the IC50 in assay [1], in assay [2], in assay [3] and in assay [4] was not above 2 µM each time.

As for `N#Cc1c(N)sc2c(F)ccc(-c3c(Cl)c4c5c(nc(OC[C@@]67CCCN6C[C@H](F)C7)nc5c3F)N(C(/C=C/F)c3cccnc3N)CCO4)c12` (single isomer, unassigned) [Compound 708], the IC50 in assay [1], in assay [2], in assay [3] and in assay [4] was not above 2 µM in each case.

For the molecule `CON=C1CN2CCC[C@@]2(COc2nc3c4c(c(C(F)(F)F)c(-c5ccc(F)c6sc(N)c(C#N)c56)c(F)c4n2)OCCN3[C@H](C)c2cccnc2N)C1` (mixture of isomers) [Compound 622, 2-amino-4 ((S)-4-((R)-1-(2-aminopyridin-3-yl)ethyl)-10-fluoro-2-(((S)-2-(methoxyimino)tetrahydro-1H-pyrrolizin-7a (5H)-yl)methoxy)-8-(trifluoromethyl)-5,6-dihydro-4H-[1,4]oxazepino[5,6,7-de]quinazolin-9-yl)-7-fluorobenzo[b]thiophene-3-carbonitrile], the IC50 in assay [1], in assay [2], in assay [3] and in assay [4] was not above 2 µM each time.

`Cc1c(F)c(N)cc(-c2nc3c4c(nc(O[C@@H](C)[C@@H]5CCCN5C)nc4c2F)N([C@H](C)c2cccnc2N)C[C@H](C)O3)c1C(F)(F)F` (single isomer, unassigned) [Compound 816]: the IC50 in assay [1], in assay [2], in assay [3] and in assay [4] was not above 2 µM throughout.

The record behind these values is patent US12668600B2 (Kumquat Biosciences Inc., priority 2023, dated 2026).
